Test system: EGFR (del19/T790M/C797S)
Test: HTRF inhibitory activity assay against EGFR (del19/T790M/C797S) enzyme
Assay type: biochemical
Description: Inhibitory Activity Assay of the Compounds Disclosed Herein Against EGFR (del19/T790M/C797S), EGFR (L858R/T790M/C797S) or EGFR (WT) Enzymes
The inhibitory effects of the compounds against EGFR (del19/T790M/C797S), EGFR (L858R/T790M/C797S) or EGFR (WT) enzyme activity was determined by using HTRF. The procedures are as follows:
The WT or mutant EGFR proteins were incubated with a serially diluted compounds at 28° C. for 10 min followed by addition of biotin-labeled general tyrosine kinase (TK) substrate and ATP. The mixture was incubated at room temperature for 40 min for reaction. After the termination of the reaction, an Eu3+-Cryptate-labeled antibody against TK and streptavidin-XL665 were added and the mixture was incubated at room temperature for 60 min. The luminescences at 615 nm and 665 nm were detected and the ratio of 665/615 was calculated to quantify the level of TK substrate phosphorylation. Inhibition % and IC50 of the compounds were calculated relative to the control group.

## CN1CCN(C2CCN(c3ccc(Nc4nc(NC5CCOCC5)c(-c5cccc(C#N)c5)nc4C(N)=O)cc3)CC2)CC1 [compound 47]
  EGFR (del19/T790M/C797S) inhibition (%) (0.3 nM compound): + (+ indicates an inhibition less than or equal to 20%)

## CN1CCN(C2CCN(c3ccc(Nc4nc(NC5CCC5)c(-c5ccncc5)nc4C(N)=O)cc3)CC2)CC1 [compound 638]
  EGFR (del19/T790M/C797S) inhibition (%) (0.3 nM compound): +++ (+++ indicates an inhibition greater than 50%.)

## CN1CCN(C2CCN(c3ccc(Nc4nc(NCCCS(C)(=O)=O)c(-c5ccccc5)nc4C(N)=O)cc3)CC2)CC1 [compound 27]
  EGFR (del19/T790M/C797S) inhibition (%) (0.3 nM compound): + (+ indicates an inhibition less than or equal to 20%)

## CN1CCN(C2CCN(c3ccc(Nc4nc(NC5CCCC5(C)O)c(-c5ccccc5)nc4C(N)=O)cc3)CC2)CC1 (stereo not drawn) [compound 8]
  EGFR (del19/T790M/C797S) inhibition (%) (0.3 nM compound): + (+ indicates an inhibition less than or equal to 20%)

## CN1CCN(C2CCN(c3ccc(Nc4nc(NC5CCOCC5)c(-c5ccn(C)c(=O)c5)nc4C(N)=O)cc3)CC2)CC1 [compound 106]
  EGFR (del19/T790M/C797S) inhibition (%) (0.3 nM compound): + (+ indicates an inhibition less than or equal to 20%)

## CN1CCN(C2CCN(c3ccc(Nc4nc(NC5CCOCC5)c(-c5ccc(C(F)F)cc5)nc4C(N)=O)cc3)CC2)CC1 [compound 101]
  EGFR (del19/T790M/C797S) inhibition (%) (0.3 nM compound): + (+ indicates an inhibition less than or equal to 20%)

## COc1nc(Nc2ccc(N3CCC(N4CCN(C)CC4)CC3)cc2)c(C(N)=O)nc1-c1ccccc1 [compound 19, 5-methoxy-3-((4-(4-(4-methylpiperazin-1-yl)piperidin-1-yl)phenyl)amino)-6-phenylpyrazine-2-carboxamide]
  EGFR (del19/T790M/C797S) inhibition (%) (0.3 nM compound): + (+ indicates an inhibition less than or equal to 20%)

## Cc1cc(Nc2nc(NC3CCOCC3)c(-c3ccncc3)nc2C(N)=O)ccc1N1CCC(N2CCN(C3CC3)CC2)CC1 [compound 146]
  EGFR (del19/T790M/C797S) inhibition (%) (0.3 nM compound): ++ (++ indicates an inhibition from 20% to 50%)

## CN1CCN(C2CCN(c3ccc(Nc4nc(NC5CC6(COC6)C5)c(-c5ccncc5)nc4C(N)=O)cc3)CC2)CC1 [compound 633]
  EGFR (del19/T790M/C797S) inhibition (%) (0.3 nM compound): +++ (+++ indicates an inhibition greater than 50%.)

## CN1CCN(C2CCN(c3ccc(Nc4nc(N[C@@H]5CCC[C@H]5O)c(-c5ccccc5)nc4C(N)=O)cc3)CC2)CC1 [compound 134]
  EGFR (del19/T790M/C797S) inhibition (%) (0.3 nM compound): ++ (++ indicates an inhibition from 20% to 50%)

## CC(=O)Nc1cccc(-c2nc(C(N)=O)c(Nc3ccc(N4CCC(N5CCN(C)CC5)CC4)cc3)nc2NC2CCOCC2)c1 [compound 100]
  EGFR (del19/T790M/C797S) inhibition (%) (0.3 nM compound): + (+ indicates an inhibition less than or equal to 20%)

## CN1CCN(C2CCN(c3ccc(Nc4nc(N[C@H]5C[C@H](O)C5)c(-c5cc[nH]n5)nc4C(N)=O)cc3)CC2)CC1 [compound 615]
  EGFR (del19/T790M/C797S) inhibition (%) (0.3 nM compound): +++ (+++ indicates an inhibition greater than 50%.)

## COc1cc(Nc2nc(NC3CCOCC3)c(-c3ccccc3)nc2C(N)=O)ccc1N1CCC(N2CCN(C)CC2)CC1 [compound 112]
  EGFR (del19/T790M/C797S) inhibition (%) (0.3 nM compound): + (+ indicates an inhibition less than or equal to 20%)

## CN1CCN(C2CCN(c3ccc(Nc4nc(NC5CCCC5)c(-c5ccccc5)nc4C(N)=O)cc3)CC2)CC1 [compound 9]
  EGFR (del19/T790M/C797S) inhibition (%) (0.3 nM compound): + (+ indicates an inhibition less than or equal to 20%)

## CN1CCN(C2CCN(c3ccc(Nc4nc(NC5CC5)c(-c5cc[nH]n5)nc4C(N)=O)cc3)CC2)CC1 [compound 625]
  EGFR (del19/T790M/C797S) inhibition (%) (0.3 nM compound): +++ (+++ indicates an inhibition greater than 50%.)

## CN1CCN(C2CCN(c3ccc(Nc4nc(N5CCCCC5)c(-c5ccccc5)nc4C(N)=O)cc3)CC2)CC1 [compound 15]
  EGFR (del19/T790M/C797S) inhibition (%) (0.3 nM compound): + (+ indicates an inhibition less than or equal to 20%)

## CC(C)Nc1nc(Nc2ccc(N3CCC(N4CCN(C)CC4)CC3)c(F)c2)c(C(N)=O)nc1-c1cccc2[nH]ccc12 [compound 530]
  EGFR (del19/T790M/C797S) inhibition (%) (0.3 nM compound): +++ (+++ indicates an inhibition greater than 50%.)

## CN1CCN(C2CCN(c3ccc(Nc4nc(NC5CCOCC5)c(-c5cccc(O)c5)nc4C(N)=O)cc3)CC2)CC1 [compound 43]
  EGFR (del19/T790M/C797S) inhibition (%) (0.3 nM compound): + (+ indicates an inhibition less than or equal to 20%)

## CN1CCN(C2CCN(c3ccc(Nc4nc(N[C@H]5CCOC5)c(-c5ccncc5)nc4C(N)=O)cc3)CC2)CC1 [compound 644]
  EGFR (del19/T790M/C797S) inhibition (%) (0.3 nM compound): +++ (+++ indicates an inhibition greater than 50%.)

## CN1CCN(C2CCN(c3ccc(Nc4nc(NC5CCOCC5)c(-c5ccccc5CO)nc4C(N)=O)cc3)CC2)CC1 [compound 71]
  EGFR (del19/T790M/C797S) inhibition (%) (0.3 nM compound): + (+ indicates an inhibition less than or equal to 20%)

## CN1CCN(C2CCN(c3ccc(Nc4nc(NC5CCOCC5)c(-c5cncnc5)nc4C(N)=O)cc3)CC2)CC1 [compound 72]
  EGFR (del19/T790M/C797S) inhibition (%) (0.3 nM compound): + (+ indicates an inhibition less than or equal to 20%)

## CN1CCN(C2CCN(c3ccc(Nc4nc(NC5CCOCC5)c(-c5ccncc5F)nc4C(N)=O)cc3)CC2)CC1 [compound 103]
  EGFR (del19/T790M/C797S) inhibition (%) (0.3 nM compound): ++ (++ indicates an inhibition from 20% to 50%)

## CN1CCN(C2CCN(c3ccc(Nc4nc(NC5CCOCC5)c(N5CCCCC5)nc4C(N)=O)cc3)CC2)CC1 [compound 116, 3-((4-(4-(4-methylpiperazin-1-yl)piperidin-1-yl)phenyl)amino)-6-(piperidin-1-yl)-5-((tetrahydro-2H-pyran-4-yl)amino)pyrazine-2-carboxamide]
  EGFR (del19/T790M/C797S) inhibition (%) (0.3 nM compound): + (+ indicates an inhibition less than or equal to 20%)

## NC(=O)c1nc(-c2ccccn2)c(NC2CCOCC2)nc1Nc1ccc(N2CCC(N3CCN(C4CC4)CC3)CC2)cc1 [compound 207]
  EGFR (del19/T790M/C797S) inhibition (%) (0.3 nM compound): ++ (++ indicates an inhibition from 20% to 50%)

## CN1CCN(C2CCN(c3ccc(Nc4nc(NC5CCC(O)C5)c(-c5cc[nH]n5)nc4C(N)=O)cc3F)CC2)CC1 (stereo not drawn) [compound 623]
  EGFR (del19/T790M/C797S) inhibition (%) (0.3 nM compound): +++ (+++ indicates an inhibition greater than 50%.)

## CN1CCN(C2CCN(c3ccc(Nc4nc(OCC(F)(F)F)c(-c5ccccc5)nc4C(N)=O)cc3)CC2)CC1 [compound 25]
  EGFR (del19/T790M/C797S) inhibition (%) (0.3 nM compound): + (+ indicates an inhibition less than or equal to 20%)

## CN1CCN(C2CCN(c3ccc(Nc4nc(NC5CCOCC5)c(-c5ccoc5)nc4C(N)=O)cc3)CC2)CC1 [compound 91]
  EGFR (del19/T790M/C797S) inhibition (%) (0.3 nM compound): ++ (++ indicates an inhibition from 20% to 50%)

## CN1CCN(C2CCN(c3ccc(Nc4nc(N[C@H]5C[C@@H](O)C5)c(-c5cc[nH]n5)nc4C(N)=O)cc3)CC2)CC1 [compound 614]
  EGFR (del19/T790M/C797S) inhibition (%) (0.3 nM compound): +++ (+++ indicates an inhibition greater than 50%.)

## CN1CCN(C2CCN(c3ccc(Nc4nc(N[C@H]5C[C@@H](O)C5)c(-c5cc[nH]n5)nc4C(N)=O)cc3F)CC2)CC1 [compound 620]
  EGFR (del19/T790M/C797S) inhibition (%) (0.3 nM compound): ++ (++ indicates an inhibition from 20% to 50%)

## CN1CCN(C2CCN(c3ccc(Nc4nc(NC5CC6(COC6)C5)c(-c5cc[nH]n5)nc4C(N)=O)cc3)CC2)CC1 [compound 627]
  EGFR (del19/T790M/C797S) inhibition (%) (0.3 nM compound): ++ (++ indicates an inhibition from 20% to 50%)

From US12600714B2, “Substituted pyrazinecarboxamide compounds for treating diseases related to EGFR mutation” (WIGEN BIOMEDICINE TECHNOLOGY (SHANGHAI) CO., LTD., priority 2020, dated 2026)
